Experimental data published in patent US5352770A, “Porcine derived novel physiologically active peptide” (priority 1990, dated 1994).
Positions of bridges follow the written chain, without caps; N, C: chain ends. No end group written: not given here.

Columns and labels:
rats = conditions: cited from earlier work
chick rectum = experiment: Chick rectum relaxant activity; conditions: fold activity versus α-hANP
Description: Chick rectum relaxant activity was measured in accordance with the method of Curtie et al. (Cuttle et al., Nature, 221, 1-13, 1983).

Male SD rats = experiment: Natriuretic and hypotensive actions in anesthetized rats after intravenous administration; format: in vivo, rat; conditions: for Blood pressure drop / Cl- excretion / K+ excretion / Na+ excretion / Urine excretion: change in 15 min after administration vs before, mean±S.D., 4 animals
Description: Male SD rats (body weight: 230-290 g) were anesthetized by intraperitoneal injection with 65 mg/kg of pentobarbital and fitted with a tracheotomy tube (PE-240 of Clay Adams) in order to insure the respiratory tract. A cannula (PE-50) for blood pressure measurement was inserted into the hip artery and a Ringer's solution was injected at a steady rate of 1.8 ml/hr through a cannula (PE-10) inserted into the hip vein. A urinary sample was taken into a test tube through a cystic cannula in the form of a Silastic tube (i.d. 0.02 inch; o.d. 0.037 inch; Dow Corning). Urinary samples were taken both for 15 minutes before the administration of the test substance and until 15 minutes after the administration at 5 min interval, followed by subsequent sampling at predetermined time intervals. By comparing the amount of each sample with the concentration of an electrolyte in it, as well as by measuring the blood pressure changes, the actions of the test substance were evaluated.
The test substance CNP was dissolved in a predetermined amount in 0.1 N acetic acid and thereafter neutralized with a 1/10 volume of 1.3 M Tris solution. The sample was diluted with 50 μl of sterilized physiological saline and administered via the cervical vein.
Data are shown in terms of mean±S.D., as obtained from each group of 4 animals, of the change that occurred in the 15-min period from the administration of the test substance, as compared to the state before the administration.

VSMC of rats = experiment: Cell growth suppressing activity ([3H]thymidine uptake); format: cell-based, rat; conditions: cultured vascular smooth muscle cell line
Description: Cell growth suppressing ability was evaluated in accordance with the method of Kariya et al. (Atherosclerosis, 80, 143-147, 1990) by measuring the uptake of ^3 H thymidine into cells as an indicator of DNA synthesis activity using VSMC of rats. Cells tuned to a stationary phase were incubated in 1% serum at 37° C. for 14 h together with various concentrations of α-hANP or CNP; following the addition of 37 KBq/ml [^3 H]thymidine, the incubation was continued for another 4 h. The radioactivity of [^3 H] thymidine incorporated into the cells was measured. The values of measurement were such that the radioactivity of [^3 H] thymidine for the case where only 1% serum was added in the absence of peptide was taken as 100%, with the percent suppression due to the peptide at the respective concentrations being accordingly calculated.

[1] = test system: cultured vascular smooth muscle cell line; experiment: cGMP production in cultured vascular smooth muscle cell line; format: cell-based

## pBNP: porcine-derived brain natriuretic peptide, single-stranded peptide composed of 26 amino acids having a single S--S bond (DSGCFGRRLDRIGSLSGLGCNVLRRY; disulfide 4-20 (inferred); UniProt P07634 106-131, looked up)
rats
  Natriuretic and hypotensive actions compared with α-hANP (in words): comparable levels of natriuretic and hypotensive actions to α-hANP

## CC[C@H](C)[C@@H]1NC(=O)[C@H](CCCNC(=N)N)NC(=O)[C@H](CC(=O)O)NC(=O)[C@H](CC(C)C)NC(=O)[C@H](CCCCN)NC(=O)[C@H](CC(C)C)NC(=O)CNC(=O)[C@H](Cc2ccccc2)NC(=O)[C@@H](NC(=O)CNC(=O)[C@H](CCCCN)NC(=O)[C@H](CO)NC(=O)[C@H](CC(C)C)NC(=O)CN)CSSC[C@@H](C(=O)O)NC(=O)CNC(=O)[C@H](CC(C)C)NC(=O)CNC(=O)[C@H](CO)NC(=O)[C@H](CCSC)NC(=O)[C@H](CO)NC(=O)CNC1=O [CNP]
Chick rectum
  Chick rectum relaxant activity relative to α-hANP: 3 - 4 times
Male SD rats; CNP dose 12 nmol/kg i.v.
  Blood pressure drop: 6.7 ± 1.7 mmHg
  Cl- excretion: 228 ± 32%
  K+ excretion: 220 ± 43%
  Na+ excretion: 192 ± 28%
  Urine excretion: 229 ± 38%
Male SD rats; CNP dose 80 nmol/kg i.v.
  Blood pressure drop: 16.7 ± 4.2 mmHg
  Cl- excretion: 301 ± 83%
  K+ excretion: 167 ± 29%
  Na+ excretion: 286 ± 125%
  Urine excretion: 251 ± 62%
Male SD rats; CNP dose 160 nmol/kg i.v.
  Blood pressure drop: 14.2 ± 5.2 mmHg
  Cl- excretion: 400 ± 45%
  K+ excretion: 238 ± 46%
  Na+ excretion: 371 ± 69%
  Urine excretion: 421 ± 40%
Male SD rats; rats, intravenous, 12-160 nmol/kg
  Natriuretic and hypotensive actions (in words): those actions increased in a dose-dependent manner
VSMC of rats
  Growth inhibiting action on vascular smooth muscle cells (in words): had a growth inhibiting action
[1]
  Activity for promoting the production of cGMP (in words): found to have an activity for promoting the production of cyclic guanosine monophosphate
